Literature values in patent US20010036486A1, “Method for treating nicotine addiction and deterring tobacco use with hypericum perforatum” (priority 2000, published 2001).

Details: small study; Edward et al. 1989

For `CN(C)CCC=C1c2ccccc2COc2ccccc21` [doxepin], the “help for smoking cessation” value is given as “showed some promise for helping smoking cessation”.
